Holding throughout (assay type): cell-based
Test [1] relates to SKBR3 cells (HER2 expressing cells). Briefly: CellTiter-Glo cell viability assay, SKBR3. To be noted: Homo sapiens, SK-BR-3; PBD compounds, 72 h incubation. The protocol:
(§1) PBD compounds and conjugates thereof were evaluated for their antiproliferation properties in tumor cell lines in vitro using CellTiter-Glo® (Promega Corp). Cells were plated in black walled 96-well plate and allowed to adhere overnight at 37° C. in a humidified atmosphere of 5% CO2. BT474, SKBR3, NCI-N87 cells (HER2 expressing cells), JIMT1 cells (HER2 medium expression level cells) and MCF7 cells (HER2 low expressing levels cells) and were plated at a density of 5,000 cells per well. The next day the medium was replaced with 50 μL fresh medium and 50 μL of 2× stocks of PBD compounds or antibody-PBD conjugate were added to appropriate wells, mixed and incubated for 72 h. CellTiter-Glo® reagent was added to the wells at room temperature and the luminescent signal was measured after 10 min using a SpectraMax M5 plate reader (Molecular Devices). Dose response curves were generated using SoftMax Pro software. IC50 values were determined from four-parameter curve fitting.
Background: In ATP-based viability assays light output follows the ATP content of the culture.

Test [2] deals with BT474 cells (HER2 expressing cells). The test can be described thus: CellTiter-Glo cell viability assay, BT474. To be noted: Homo sapiens, BT-474; PBD compounds, 72 h incubation. The protocol: as §1
Test [3] concerns MCF7 cells (HER2 low expressing levels cells). The test can be described thus: CellTiter-Glo cell viability assay, MCF7. To be noted: Homo sapiens, MCF7; PBD compounds, 72 h incubation. How it is done: as §1
Test [4] deals with JIMT1 cells (HER2 medium expression level cells). The test can be described thus: CellTiter-Glo cell viability assay, JIMT1. To be noted: Homo sapiens, JIMT-1; PBD compounds, 72 h incubation. How it is done: as §1
The subject of test [5] is NCI-N87 cells (HER2 expressing cells). The test can be described thus: CellTiter-Glo cell viability assay, NCI-N87. To be noted: Homo sapiens, NCI-N87; PBD compounds, 72 h incubation. The protocol:
as §1

In general, IC50 refers to the concentration that gives 50% inhibition. Lower therefore signals inhibition by little substance. With `COc1cc2c(cc1OCCCC(=O)Nc1cc(C(=O)Nc3cc(C(=O)Nc4cc(C(=O)NCCCO)n(C)c4)n(C)c3)n(C)c1)N=C[C@@H]1CCCN1C2=O` [Compound 66, (S,Z)-N-(3-hydroxypropyl)-4-(4-(4-(4-(7-methoxy-5-oxo-2,3,5,11a-tetrahydro-1H-benzo[e]pyrrolo[1,2-a][1,4]diazepin-8-yloxy)butanamido)-1-methyl-1H-pyrrole-2-carboxamido)-1-methyl-1H-pyrrole-2-carboxamido)-1-methyl-1H-pyrrole-2-carboxamide], the IC50 amounted to 16 nM in test [1]; 86 nM in test [2]; 121 nM in test [3]; 15 nM in test [4]; 27 nM in test [5].

`C=C1C[C@H]2C=Nc3cc(OCCCC(=O)Nc4cn(C)c(C(=O)Nc5cc(C(=O)Nc6cc(C(=O)n7ccc8cc(OC)ccc87)n(C)c6)n(C)c5)n4)c(OC)cc3C(=O)N2C1` [Compound 7A]: the IC50 in test [1] was found to be 0.15 nM; in test [2], 0.6 nM; in test [3] it was 2.7 nM; in test [4], 1.1 nM; in test [5], 0.3 nM.

Regarding `C=C1C[C@H]2C=Nc3cc(OCCCC(=O)Nc4cn(C)c(C(=O)Nc5cc(C(=O)Nc6cnc7[nH]ccc7c6)n(C)c5)n4)c(OC)cc3C(=O)N2C1` [Compound 84, (S,Z)-N-(5-(1H-pyrrolo[2,3-b]pyridin-5-ylcarbamoyl)-1-methyl-1H-pyrrol-3-yl)-4-(4-(7-methoxy-2-methylene-5-oxo-2,3,5,11a-tetrahydro-1H-benzo[e]pyrrolo[1,2-a][1,4]diazepin-8-yloxy)butanamido)-1-methyl-1H-imidazole-2-carboxamide], the IC50 stood at 0.66 nM in test [1]; 5.4 nM in test [2]; 3.8 nM in test [3]; 3.6 nM in test [4]; 1.5 nM in test [5].

Regarding `C=C1C[C@H]2C=Nc3cc(OCCCC(=O)Nc4cn(C)c(C(=O)Nc5cc(C(=O)Nc6cc(C(=O)n7ccc8cc(S(C)(=O)=O)ccc87)n(C)c6)n(C)c5)n4)c(OC)cc3C(=O)N2C1` [Compound 20, (S,Z)-4-(4-(7-methoxy-2-methylene-5-oxo-2,3,5,11a-tetrahydro-1H-benzo[e]pyrrolo[1,2-a][1,4]diazepin-8-yloxy)butanamido)-1-methyl-N-(1-methyl-5-(1-methyl-5-(5-(methylsulfonyl)-1H-indole-1-carbonyl)-1H-pyrrol-3-ylcarbamoyl)-1H-pyrrol-3-yl)-1H-imidazole-2-carboxamide], the IC50 in test [1] turned out to be 5.5 nM; in test [2], 126 nM; in test [3], 202 nM; in test [4], 19.9 nM; in test [5] it was 26 nM.

As for `C=C1C[C@H]2C=Nc3cc(OCCCC(=O)Nc4cn(C)c(C(=O)Nc5cc(C(=O)Nc6cc(C(=O)N7CCc8cc(N)ccc87)n(C)c6)n(C)c5)n4)c(OC)cc3C(=O)N2C1` [Compound 77, (S,Z)-N-(5-(5-(5-aminoindoline-1-carbonyl)-1-methyl-1H-pyrrol-3-ylcarbamoyl)-1-methyl-1H-pyrrol-3-yl)-4-(4-(7-methoxy-2-methylene-5-oxo-2,3,5,11a-tetrahydro-1H-benzo[e]pyrrolo[1,2-a][1,4]diazepin-8-yloxy)butanamido)-1-methyl-1H-imidazole-2-carboxamide], the IC50 was found to be 1.4 nM in test [1]; 37.1 nM in test [2]; 14.9 nM in test [3]; 8.6 nM in test [4]; 6.4 nM in test [5].

Regarding `C=C1C[C@H]2C=Nc3cc(OCCCC(=O)Nc4cn(C)c(C(=O)Nc5cc(C(=O)Nc6cc(C(=O)N7Cc8ccc(N)cc8C7)n(C)c6)n(C)c5)n4)c(OC)cc3C(=O)N2C1` [Compound 6A, (S,Z)-N-(5-(5-(5-aminoisoindoline-2-carbonyl)-1-methyl-1H-pyrrol-3-ylcarbamoyl)-1-methyl-1H-pyrrol-3-yl)-4-(4-(7-methoxy-2-methylene-5-oxo-2,3,5,11a-tetrahydro-1H-benzo[e]pyrrolo[1,2-a][1,4]diazepin-8-yloxy)butanamido)-1-methyl-1H-imidazole-2-carboxamide], the IC50 in test [1] worked out at 1.5 nM; in test [2] it was 5.3 nM; in test [3] it was 17.1 nM; in test [4], 8.9 nM; in test [5], 4.2 nM.

As for `C=C1CC2C=Nc3cc(OCCCC(=O)Nc4cn(C)c(C(=O)Nc5cc(C(=O)Nc6cc(C(=O)NCCCO)n(C)c6)n(C)c5)n4)c(OC)cc3C(=O)N2C1` (stereo in doubt) [Compound 56, (S,Z)-N-(5-(5-(3-hydroxypropylcarbamoyl)-1-methyl-1H-pyrrol-3-ylcarbamoyl)-1-methyl-1H-pyrrol-3-yl)-4-(4-(7-methoxy-2-methylene-5-oxo-2,3,5,11a-tetrahydro-1H-benzo[e]pyrrolo[1,2-a][1,4]diazepin-8-yloxy)butanamido)-1-methyl-1H-imidazole-2-carboxamide], the IC50 stood at 7.9 nM in test [1]; 23.3 nM in test [2]; 54.5 nM in test [3]; 9 nM in test [4]; 13.6 nM in test [5].

`C=C1C[C@H]2C=Nc3cc(OCCCC(=O)Nc4cn(C)c(C(=O)Nc5cc(C(=O)Nc6cc(C(=O)n7ccc8cc(CN)ccc87)n(C)c6)n(C)c5)n4)c(OC)cc3C(=O)N2C1` [Compound 83, (S,Z)-N-(5-(5-(5-(aminomethyl)-1H-indole-1-carbonyl)-1-methyl-1H-pyrrol-3-ylcarbamoyl)-1-methyl-1H-pyrrol-3-yl)-4-(4-(7-methoxy-2-methylene-5-oxo-2,3,5,11a-tetrahydro-1H-benzo[e]pyrrolo[1,2-a][1,4]diazepin-8-yloxy)butanamido)-1-methyl-1H-imidazole-2-carboxamide]: the IC50 in test [1] is 0.18 nM; in test [2], 2.5 nM; in test [3], 2.4 nM; in test [4], 1.2 nM; in test [5] it was 0.81 nM.

Consider `C=C1C[C@H]2C=Nc3cc(OCCCC(=O)Nc4cn(C)c(C(=O)Nc5cc(C(=O)NCc6ccc(N)cc6)n(C)c5)n4)c(OC)cc3C(=O)N2C1` [Compound 3A, (S,Z)-N-(5-(4-aminobenzylcarbamoyl)-1-methyl-1H-pyrrol-3-yl)-4-(4-(7-methoxy-2-methylene-5-oxo-2,3,5,11a-tetrahydro-1H-benzo[e]pyrrolo[1,2-a][1,4]diazepin-8-yloxy)butanamido)-1-methyl-1H-imidazole-2-carboxamide], for which the IC50 in test [1] worked out at 9 nM; in test [2] it was 69 nM; in test [3], 214 nM; in test [4] it was 91 nM; in test [5] it was 14 nM.

For the molecule `C=C1C[C@H]2C=Nc3cc(OCCCC(=O)Nc4cn(C)c(C(=O)Nc5cc(C(=O)n6ccc7cc(N)ccc76)n(C)c5)n4)c(OC)cc3C(=O)N2C1` [Compound 12, (S,Z)-N-(5-(5-amino-1H-indole-1-carbonyl)-1-methyl-1H-pyrrol-3-yl)-4-(4-((7-methoxy-2-methylene-5-oxo-2,3,5,11a-tetrahydro-1H-benzo[e]pyrrolo[1,2-a][1,4]diazepin-8-yl)oxy)butanamido)-1-methyl-1H-imidazole-2-carboxamide], the IC50 in test [1] came out at 0.4 nM; in test [2], 2 nM; in test [3], 13.9 nM; in test [4] it was 4.4 nM; in test [5], 7 nM.

`COc1cc2c(cc1OCCCC(=O)Nc1cn(C)c(C(=O)Nc3cc(C(=O)Nc4cc(C(=O)n5ccc6cc(N)ccc65)n(C)c4)n(C)c3)n1)N=C[C@@H]1Cc3ccccc3N1C2=O` [Compound 78, (S)-N-(5-((5-(5-amino-1H-indole-1-carbonyl)-1-methyl-1H-pyrrol-3-yl)carbamoyl)-1-methyl-1H-pyrrol-3-yl)-4-(4-((8-methoxy-6-oxo-12a,13-dihydro-6H-benzo[5,6][1,4]diazepino[1,2-a]indol-9-yl)oxy)butanamido)-1-methyl-1H-imidazole-2-carboxamide]: the IC50 in test [1] came to 0.06 nM; in test [2], 0.63 nM; in test [3], 1.9 nM; in test [4], 1.1 nM; in test [5] it was 0.29 nM.

On to `C=C1C[C@H]2C=Nc3cc(OCCCC(=O)Nc4cn(C)c(C(=O)Nc5cc(C(=O)Nc6cc(C(=O)n7ccc8cc(C(=O)OC)ccc87)n(C)c6)n(C)c5)n4)c(OC)cc3C(=O)N2C1` [Compound 8A, (S,Z)-methyl 1-(4-(4-(4-(4-(7-methoxy-2-methylene-5-oxo-2,3,5,11a-tetrahydro-1H-benzo[e]pyrrolo[1,2-a][1,4]diazepin-8-yloxy)butanamido)-1-methyl-1H-imidazole-2-carboxamido)-1-methyl-1H-pyrrole-2-carboxamido)-1-methyl-1H-pyrrole-2-carbonyl)-1H-indole-5-carboxylate], for which the IC50 in test [1] stood at 0.14 nM; in test [2], 0.83 nM; in test [3], 3.7 nM; in test [4], 0.55 nM; in test [5], 2.9 nM.
